From US10010561B2, “Method of treating cancer using high efficiency self-illuminative nanocomplexes and method of manufacturing the same” (Research & Business Foundation Sungkyunkwan University, priority 2014, dated 2018) come the findings set out here.

{SH} = thiol linker

The nature of data set [1]: doxorubicin capture in linear nucleic acid, doxorubicin autofluorescence. To be noted: room temperature, 24 hours; linear nucleic acid:doxorubicin 1:1 to 1:20; FIG. 5. The format is physicochemical. How it is done:
To contain doxorubicin in a new nucleic acid-based functional anticancer drug, linear nucleic acids represented by SEQ. ID. NO: 2 ([NT]) and SEQ. ID. NO: 3 (5'-/thiol/[NT]3') were used. To prepare a doxorubicin-binding linear nucleic acid, the linear nucleic acid and doxorubicin were mixed with various concentrations (linear nucleic acid:doxorubicin=1:1 to 1:20) and reacted at room temperature for 24 hours, and autofluorescence of the doxorubicin was detected.

Data set [2] is described as follows: luminescence activity of m-Rluc8 compared with wild-type luciferase. The format is biochemical. As to conditions: versus wild-type luciferase purified by the same method; FIG. 2. From the text:
To obtain a high efficiency self-luminescent light source, a modified self-illuminative protein (m-Rluc8) in which artificial mutation occurred on an amino acid sequence of a wild-type luciferase was expressed in E. coli and purified. That is, an expression vector (m-Rluc8_pPAL7) into which the modified self-illuminative protein (m-Rluc8) consisting of an amino acid sequence (SEQ. ID. NO: 1) shown in FIG. 1 was inserted was manufactured, transformed into and expressed in E. coli BL21 strain cells and then purified, thereby obtaining a high purity modified self-illuminative protein (m-Rluc8).

In the case of “linear nucleic acid (DNA GTCGCAGGCACATCAGTACAGCCAGATCCGTACCTACTCG; DNA, 5' {SH}, backbone and methylation of C not given here; conjugated to gold)”, the “maximum doxorubicin binding to 1 μM linear nucleic acid” value in data set [1] worked out at 10 µM.

B1: m-Rluc8: modified self-illuminative protein of SEQ. ID. NO: 1, wild-type Renilla luciferase mutated at 8 sites (protein)
chain: MASKVYDPEQRKRMITGPQWWARCKQMNVLDSFINYYDSEKHAENAVIFLHGNATSSYLWRHVVPHIEPVARCIIPDLIGMGKSGKSGNGSYRLLDHYKYLTAWFELLNLPKKIIFVGHDWGAALAFHYAYEHQDRIKAIVHMESVVDVIESWDEWPDIEEDIALIKSEEGEKMVLENNFFVETVLPSKIMRKLEPEEFAAYLEPFKEKGEVRRPTLSWPREIPLVKGGKPDVVQIVRNYNAYLRASDDLPKLFIESDPGFFSNAIVEGAKKFPNTEFVKVKGLHFLQEDAPDEMGKYIKSFVERVLKNEQ
modifications: Renilla luciferase
notes: ID; NO: 1, wild-type Renilla luciferase mutated at 8 sites
Take B1: the “luminescence activity relative to wild-type luciferase” value in data set [2] is listed as “more than 5.65 fold”.
